In brackets after ≈: the same amount, converted by molar mass.

The values below come from US20230192717A1, “COMPOSITIONS AND METHODS OF MODULATING SHORT-CHAIN DEHYDROGENASE ACTIVITY” (RODEO THERAPEUTICS CORPORATION, priority 2020, published 2023).

The target in one data set is T1, recombinant 15-PGDH (Homo sapiens, UniProt P15428).
T1 sequence (P15428 1-266): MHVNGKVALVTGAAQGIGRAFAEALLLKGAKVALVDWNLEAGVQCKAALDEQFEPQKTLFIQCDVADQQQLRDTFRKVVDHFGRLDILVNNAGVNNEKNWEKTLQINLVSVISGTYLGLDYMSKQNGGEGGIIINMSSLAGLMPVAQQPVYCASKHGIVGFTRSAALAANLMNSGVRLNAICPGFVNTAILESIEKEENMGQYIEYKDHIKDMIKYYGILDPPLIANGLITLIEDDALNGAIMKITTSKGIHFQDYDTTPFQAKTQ
In words: inhibition of enzymatic activity of recombinant 15-PGDH in vitro. In kind it is biochemical. Conditions: recombinant human 15-PGDH. The source says:
The Recombinant 15-PGDH is human unless otherwise specified.

Data set [1] in a line: kinetic aqueous solubility in pH 7 citrate buffer. Type of data set: physicochemical. As to conditions: kinetic from dmso stock, pH 7 citrate buffer solution, read-out: Kinetic Aq solubility (μM pH 7).
The next data set deals with hERG channels (Homo sapiens, UniProt Q12809). As to the kind of experiment: hERG test on manual patch-clamp system. Type of data set: cell-based. As to conditions: CHO-K1 cells expressing hERG, whole-cell patch clamp, room temperature. How it is done:
Visual check for precipitation was conducted before testing.
For orientation: hERG is a cardiac potassium channel; its block is linked to QT prolongation.

Chain of hERG channels (Q12809 whole entry): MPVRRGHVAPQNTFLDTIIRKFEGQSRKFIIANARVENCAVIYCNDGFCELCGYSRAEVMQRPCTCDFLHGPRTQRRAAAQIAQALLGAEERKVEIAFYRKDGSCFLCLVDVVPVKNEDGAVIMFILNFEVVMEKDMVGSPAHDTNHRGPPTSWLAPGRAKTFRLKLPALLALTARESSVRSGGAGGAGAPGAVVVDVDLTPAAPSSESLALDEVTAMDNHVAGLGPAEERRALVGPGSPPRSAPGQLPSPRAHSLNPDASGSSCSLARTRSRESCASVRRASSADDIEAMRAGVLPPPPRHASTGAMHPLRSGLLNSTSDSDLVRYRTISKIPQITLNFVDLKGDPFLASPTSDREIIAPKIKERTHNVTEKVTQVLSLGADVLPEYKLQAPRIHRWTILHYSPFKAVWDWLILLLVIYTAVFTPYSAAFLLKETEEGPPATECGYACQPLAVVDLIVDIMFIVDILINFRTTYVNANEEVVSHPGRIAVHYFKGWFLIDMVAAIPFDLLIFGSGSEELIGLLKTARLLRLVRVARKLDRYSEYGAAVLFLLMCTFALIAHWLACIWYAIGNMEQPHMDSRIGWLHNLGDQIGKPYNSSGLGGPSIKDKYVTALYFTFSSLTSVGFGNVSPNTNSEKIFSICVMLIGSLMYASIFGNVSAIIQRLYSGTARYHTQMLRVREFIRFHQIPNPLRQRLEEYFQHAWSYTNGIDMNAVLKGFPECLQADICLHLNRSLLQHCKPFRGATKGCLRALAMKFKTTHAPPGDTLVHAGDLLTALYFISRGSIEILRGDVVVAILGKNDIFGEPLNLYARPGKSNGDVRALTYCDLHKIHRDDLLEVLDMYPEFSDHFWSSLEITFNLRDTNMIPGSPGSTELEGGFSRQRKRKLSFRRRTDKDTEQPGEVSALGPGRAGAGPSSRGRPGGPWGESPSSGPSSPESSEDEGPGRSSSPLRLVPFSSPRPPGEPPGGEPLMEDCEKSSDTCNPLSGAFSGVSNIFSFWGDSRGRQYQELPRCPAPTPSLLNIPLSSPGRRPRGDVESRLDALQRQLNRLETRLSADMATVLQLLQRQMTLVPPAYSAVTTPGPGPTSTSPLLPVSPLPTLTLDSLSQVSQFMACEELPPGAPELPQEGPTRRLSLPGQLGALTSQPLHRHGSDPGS

In general, IC50 refers to the concentration needed to halve the response being measured. With `COCC[S+]([O-])c1sc2nc(-c3cnc4nccnc4c3)cc(C3CCC3)c2c1N` (stereo not shown) [Compound 7, 4-cyclobutyl-2-(2-methoxyethanesulfinyl)-6-{pyrido[2,3-b]pyrazin-7-yl}thieno[2,3-b]pyridin-3-amine], the IC50 on recombinant 15-PGDH was under 2.5 nM.
Same read-out and setting: for `CC(C)c1cc(-c2cnc(NCCO)nc2)nc2sc([S@@+]([O-])C3CCC3)c(N)c12` [Compound 8] the value was over 10 nM.
By kinetic solubility is commonly meant the concentration staying in solution when a stock, usually in DMSO, is diluted into the medium. For the compound `COCC[S@@+]([O-])c1sc2nc(-c3cnc4nn(C)cc4c3)c(C#N)c(-c3ccccc3)c2c1N` [Compound 9, (R)-3-amino-2-((2-methoxyethyl)sulfinyl)-6-(2-methyl-2H-pyrazolo[3,4-b]pyridin-5-yl)-4-phenylthieno[2,3-b]pyridine-5-carbonitrile], the figures for the concentration for half-maximal inhibition (IC50) on recombinant 15-PGDH and against hERG channels were under 2.5 nM and 13000 nM, respectively. Besides, the solubility (kinetic) in data set [1] was found to be 169 µM (≈ 82.6 µg/mL).
Take `Cn1nccc1-c1cc(-c2ccc3ncncc3c2)nc2sc([S@+]([O-])C3CCC3)c(N)c12` [Compound 10, 2-[(R)-cyclobutanesulfinyl]-4-(1-methyl-1H-pyrazol-5-yl)-6-(quinazolin-6-yl)thieno[2,3-b]pyridin-3-amine]: the IC50 on recombinant 15-PGDH is under 2.5 nM.
The same measure, in the same setting: the value for `COCC[S@@+]([O-])c1sc2nc(-c3cnc4cnccn34)cc(C3CCC3)c2c1N` [Compound 11, (R)-4-cyclobutyl-6-(imidazo[1,2-a]pyrazin-3-yl)-2-((2-methoxyethyl)sulfinyl)thieno[2,3-b]pyridin-3-amine] was under 2.5 nM; that for `Cn1nccc1-c1cc(-c2cnc3ncccc3c2)nc2sc([S+]([O-])C3CCC3)c(N)c12` (stereo not shown) [Compound 12, 2-(cyclobutanesulfinyl)-4-(1-methyl-1H-pyrazol-5-yl)-6-(1,8-naphthyridin-3-yl)thieno[2,3-b]pyridin-3-amine] was under 2.5 nM.
With `COCC[S@@+]([O-])c1sc2nc(-c3cnc4cnccn34)cc(-c3ccnn3C)c2c1N` [Compound 13, (R)-6-(imidazo[1,2-a]pyrazin-3-yl)-2-((2-methoxyethyl)sulfinyl)-4-(1-methyl-1H-pyrazol-5-yl)thieno[2,3-b]pyridin-3-amine], the IC50 at recombinant 15-PGDH is under 2.5 nM.
Consider `Cn1cc2cc(-c3cc(C4CC5(COC5)C4)c4c(N)c([S@+]([O-])C5CCC5)sc4n3)cnc2n1` [Compound 14, (R)-2-(cyclobutylsulfinyl)-6-(2-methyl-2H-pyrazolo[3,4-b]pyridin-5-yl)-4-(2-oxaspiro[3.3]heptan-6-yl)thieno[2,3-b]pyridin-3-amine], for which, at recombinant 15-PGDH, the IC50 is under 2.5 nM.
As to `COCC[S@@+]([O-])c1sc2nc(-c3ccc4ncncc4c3)cc(-c3ccnn3C)c2c1N` [Compound 15, 2-[(R)-2-methoxyethanesulfinyl]-4-(1-methyl-1H-pyrazol-5-yl)-6-(quinazolin-6-yl)thieno[2,3-b]pyridin-3-amine], on recombinant 15-PGDH, the IC50 was under 2.5 nM.
The same measure, in the same setting: the value for `COCC[S@@+]([O-])c1sc2nc(-c3ccc4cncnc4c3)cc(-c3ccnn3C)c2c1N` [Compound 16, 2-[(R)-2-methoxyethanesulfinyl]-4-(1-methyl-1H-pyrazol-5-yl)-6-(quinazolin-7-yl)thieno[2,3-b]pyridin-3-amine] was under 2.5 nM.
In the case of `COCC[S+]([O-])c1sc2nc(-c3cnc4nn(C)cc4c3)nc(C(C)C)c2c1N` (stereo not shown) [Compound 17, 4-isopropyl-6-((2-methoxyethyl)sulfinyl)-2-(2-methyl-2H-pyrazolo[3,4-b]pyridin-5-yl)thieno[2,3-d]pyrimidin-5-amine], the IC50 at recombinant 15-PGDH is under 2.5 nM. Besides, in data set [1], the solubility (kinetic) amounted to 187 µM (≈ 80.5 µg/mL).
Regarding `CC(C)c1cc(-c2cnc(N)nc2)nc2sc([S@+]([O-])C3CCC3)c(N)c12` [Compound 20], the IC50 on recombinant 15-PGDH was under 2.5 nM.
For the compound `CC(C)c1cc(-c2cnc(N)nc2)nc2sc([S@@+]([O-])C3CCC3)c(N)c12` [Compound 21], on recombinant 15-PGDH, the IC50 was over 10 nM.
With `CNc1ncc(-c2cc(C(C)C)c3c(N)c([S@+]([O-])CCOC)sc3n2)cn1` [Compound 22, 5-{3-amino-2-[(R)-2-methoxyethanesulfinyl]-4-(propan-2-yl)thieno[2,3-b]pyridin-6-yl}-N-methylpyrimidin-2-amine], at recombinant 15-PGDH, the 50% inhibitory concentration (IC50) was under 2.5 nM.
Consider `COCC[S@@+]([O-])c1sc2nc(-c3cnc4nn(C)cc4c3)cc(C(C)(C)C)c2c1N` [Compound 28, 4-tert-butyl-2-[(R)-2-methoxyethanesulfinyl]-6-{2-methyl-2H-pyrazolo[3,4-b]pyridin-5-yl}thieno[2,3-b]pyridin-3-amine], for which the IC50 at recombinant 15-PGDH was under 2.5 nM.
`Cn1nccc1-c1cc(-c2cnc3c(c2)CNCC3)nc2sc([S+]([O-])C3CCC3)c(N)c12` (stereo not shown) [Compound 31, 2-(cyclobutanesulfinyl)-4-(1-methyl-1H-pyrazol-5-yl)-6-(5,6,7,8-tetrahydro-1,6-naphthyridin-3-yl)thieno[2,3-b]pyridin-3-amine]: on recombinant 15-PGDH, the IC50 was 2.5 to 10 nM.
In the case of `COCC[S+]([O-])c1sc2nc(-c3cnc4c(c3)OCCN4)cc(-c3ccnn3C)c2c1N` (stereo not shown) [Compound 32, 2-(2-methoxyethanesulfinyl)-4-(1-methyl-1H-pyrazol-5-yl)-6-{2H,3H,4H-pyrido[3,2-b][1,4]oxazin-7-yl}thieno[2,3-b]pyridin-3-amine], the IC50 at recombinant 15-PGDH is under 2.5 nM.
With `CC(C)c1cc(-c2cc(=O)n(C)cn2)nc2sc([S@+]([O-])C3CCC3)c(N)c12` [Compound 33, 6-{3-amino-2-[(R)-cyclobutanesulfinyl]-4-(propan-2-yl)thieno[2,3-b]pyridin-6-yl}-3-methyl-3,4-dihydropyrimidin-4-one], the IC50 at recombinant 15-PGDH was under 2.5 nM.
On the same count and under the same terms, the value for `COCC[S@@+]([O-])c1sc2nc(-c3cc(=O)n(C)cn3)cc(C(C)C)c2c1N` [Compound 34, 6-{3-amino-2-[(R)-2-methoxyethanesulfinyl]-4-(propan-2-yl)thieno[2,3-b]pyridin-6-yl}-3-methyl-3,4-dihydropyrimidin-4-one] was under 2.5 nM.
The same measure, in the same setting: for `CC(C)(C)c1cc(-c2cnc(N)nc2)nc2sc([S@+]([O-])C3CCC3)c(N)c12` [Compound 35, 5-{3-amino-4-tert-butyl-2-[(R)-cyclobutanesulfinyl]thieno[2,3-b]pyridin-6-yl}pyrimidin-2-amine] the value was under 2.5 nM.
Take `COCC[S@@+]([O-])c1sc2nc(-c3cc(=O)n(C)cn3)cc(-c3ccccc3)c2c1N` [Compound A, reference compound]: the IC50 at recombinant 15-PGDH is under 2.5 nM. Moreover, the solubility (kinetic) in data set [1] turned out to be 64 µM (≈ 28.2 µg/mL).
